The record followed here is US20150064697A1 (priority 2012, published 2015).

Assay [1] concerns LLC cells. The experiment in a line: Dot-blot hybridization for GSAT RNA. The following applies: 10 μM 48 hours.
The subject of assay [2] is LLC cells. Nature of the assay: Cell viability assay (methylene blue), cytotoxicity of 5-aza-dC. Type of assay: cell-based, mouse. The note with it: 5 days treatment.
In assay [3] the target is DNA methyltransferase I (DNMT1) (Mus musculus, UniProt P13864). Nature of the assay: Western blot of DNMT1 protein level. Type of assay: cell-based. The following applies: both p53-WT and p53-null cells, 48 hours. (In general: A western blot detects proteins with antibodies after separation by electrophoresis.)
Assay [4] relates to CT26 cells. The experiment in a line: Cell viability assay (methylene blue), cytotoxicity of 5-aza-dC. Type of assay: cell-based, mouse. The following applies: 5 days treatment.
Assay [5] has as its system SCC-VII cells. The experiment in a line: RT-PCR of IFNβ1, IRF7 and CXCL10 mRNA. The following applies: 10 μM 48 hours.
Assay [6] relates to caspases 3 and 7 in ifnar−/− MEFs. The experiment in a line: Caspase-3,7 activity assay (Ac-DEVD-AMC). The note with it: 48 hours.
Assay [7] relates to SCC-VII cells. Nature of the assay: Dot-blot hybridization for GSAT RNA. The following applies: 10 μM 48 hours.
Assay [8] relates to SCC-VII cells. Nature of the assay: Cell viability assay (methylene blue), cytotoxicity of 5-aza-dC. Type of assay: cell-based, mouse. The following applies: 5 days treatment.
In assay [9] the test system is primary mouse hepatocytes (quiescent). Nature of the assay: Viability of quiescent primary hepatocytes (methylene blue). Type of assay: cell-based. The following applies: p53-wt and null hepatocytes, 5 days.
For assay [10], the system named is CT26 cells. The experiment in a line: Dot-blot hybridization for GSAT RNA. The following applies: CT26, 10 μM 48 hours.
In assay [11] the test system is LLC cells. Nature of the assay: RT-PCR of IFNβ1, IRF7 and CXCL10 mRNA. The note with it: 10 μM 48 hours.

Chain of DNA methyltransferase I (DNMT1) (P13864 whole entry): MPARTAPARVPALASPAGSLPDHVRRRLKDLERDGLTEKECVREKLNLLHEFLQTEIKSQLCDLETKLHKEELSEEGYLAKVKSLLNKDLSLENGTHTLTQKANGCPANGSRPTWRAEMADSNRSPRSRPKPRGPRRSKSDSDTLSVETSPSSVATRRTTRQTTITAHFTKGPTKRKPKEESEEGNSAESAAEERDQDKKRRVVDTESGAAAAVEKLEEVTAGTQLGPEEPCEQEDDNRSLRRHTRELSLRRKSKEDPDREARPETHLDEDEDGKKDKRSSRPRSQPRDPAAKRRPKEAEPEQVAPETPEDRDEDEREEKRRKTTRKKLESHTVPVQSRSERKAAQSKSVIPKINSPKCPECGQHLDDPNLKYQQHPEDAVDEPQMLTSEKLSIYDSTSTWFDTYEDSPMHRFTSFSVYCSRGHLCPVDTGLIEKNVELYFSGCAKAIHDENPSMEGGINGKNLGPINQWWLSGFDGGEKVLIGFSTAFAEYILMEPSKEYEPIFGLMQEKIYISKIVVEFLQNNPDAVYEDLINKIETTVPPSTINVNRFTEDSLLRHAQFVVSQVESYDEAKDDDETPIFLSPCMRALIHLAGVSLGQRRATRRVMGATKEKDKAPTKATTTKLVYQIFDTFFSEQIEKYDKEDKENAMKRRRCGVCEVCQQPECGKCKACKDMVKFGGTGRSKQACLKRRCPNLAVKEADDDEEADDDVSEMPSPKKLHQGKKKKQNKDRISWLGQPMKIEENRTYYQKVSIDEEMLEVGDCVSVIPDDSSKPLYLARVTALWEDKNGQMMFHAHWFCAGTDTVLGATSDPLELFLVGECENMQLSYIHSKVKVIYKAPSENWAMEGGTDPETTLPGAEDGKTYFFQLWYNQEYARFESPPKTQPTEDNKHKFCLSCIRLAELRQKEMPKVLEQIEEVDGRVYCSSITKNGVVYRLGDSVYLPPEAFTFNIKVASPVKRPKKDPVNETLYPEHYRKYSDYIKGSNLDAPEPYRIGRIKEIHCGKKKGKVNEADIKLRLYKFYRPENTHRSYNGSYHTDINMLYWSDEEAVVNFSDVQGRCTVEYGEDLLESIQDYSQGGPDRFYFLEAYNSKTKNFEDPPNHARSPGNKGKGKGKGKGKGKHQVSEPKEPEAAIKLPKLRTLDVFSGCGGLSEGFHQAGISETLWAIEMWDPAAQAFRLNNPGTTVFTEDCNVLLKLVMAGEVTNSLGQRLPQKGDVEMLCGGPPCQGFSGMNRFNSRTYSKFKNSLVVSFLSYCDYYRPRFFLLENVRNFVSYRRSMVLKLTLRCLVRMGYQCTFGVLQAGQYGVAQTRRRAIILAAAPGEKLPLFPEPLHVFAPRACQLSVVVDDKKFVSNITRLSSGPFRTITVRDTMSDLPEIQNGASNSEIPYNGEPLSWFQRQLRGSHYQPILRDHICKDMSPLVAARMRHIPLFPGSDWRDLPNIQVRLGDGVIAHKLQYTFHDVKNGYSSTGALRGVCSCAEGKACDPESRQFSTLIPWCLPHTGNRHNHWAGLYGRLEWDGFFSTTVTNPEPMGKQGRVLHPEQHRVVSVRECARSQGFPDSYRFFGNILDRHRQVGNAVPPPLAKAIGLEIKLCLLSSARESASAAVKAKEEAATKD

In the case of `Nc1ncn([C@H]2C[C@H](O)[C@@H](CO)O2)c(=O)n1` [5-aza-dC, 5-aza-2′-deoxycytidine], the “expression of GSAT RNA upon treatment” value in the assay on LLC cells [1] was “undetectable”; in the assay with SCC-VII cells [7], “strong”; with CT26 cells [10], “intermediate”. Besides, the LD50 came out at 14 µM in the assay on LLC cells [2], 2 µM in the assay with CT26 cells [4] and 0.125 µM in the assay on SCC-VII cells [8]. For the same compound, the “free DNMT1 protein after treatment” value in assay [3] is on record as “complete depletion”. In addition, the entries for the “mRNAs encoding IFNβ1, IRF7 and CXCL10” value in the assay with SCC-VII cells [5] and with LLC cells [11] were “strong upregulation” and “none of these IFN response-associated transcripts was detected”, respectively. Further, the caspase activation entry in assay [6] is reported as “No signs of caspase activation”. In addition, the “sensitivity of quiescent cells to cultivation with 5-aza-dC” value in [9] is “resistant”.
